Results from the METLIN SMRT retention time set (Domingo-Almenara et al. 2019).

Experiment: gradient 5% acetonitrile 3 min, to 50% in 2 min, to 85% in 15 min, held 3 min, 100 µL/min
Settings: column: Zorbax Extend-C18 2.1 x 50 mm; eluents: water / acetonitrile, 0.1% formic acid
Method in brief: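 Data were gathered over 3 months by HPLC coupled to a quadrupole time-of-flight mass spectrometer, operated in positive and negative ionization mode. Mixtures of ~100 pure standards ran on a Zorbax Extend-C18 column (2.1 × 50 mm, 1.8 μm) at 100 μL/min, with water and acetonitrile each containing 0.1% formic acid and dead and dwell volumes of 40 μL and 900 μL. Retention time was read from adduct peaks picked by computer and checked manually.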

`CCOC(=O)C1CCN(c2ncc(S(=O)(=O)c3ccccc3)c(N)n2)CC1` showed an RP-LC retention time of 885 s.

Work on `CCN1CCN(CCNC(=O)C2CCCN(c3nnc(C)c4c(C)n(-c5ccccc5)nc34)C2)CC1` (stereo not given) yielded an RP-LC retention time of 570 s.

With `CC(C)Cn1c(=O)c2nscc2n(CC(=O)NC(C)C)c1=O` the RP-LC retention time was 693 s.

With `CCCCn1nc2c(S(=O)(=O)N3CCOCC3)cccn2c1=O` the RP-LC retention time was 702 s.

`O=C(Nc1cccc(Cl)c1)N1CCc2nc[nH]c2C1` showed an RP-LC retention time of 597 s.

With `O=C(NCc1ccc2c(c1)OCO2)C1CCCN(c2nnc3c(Cl)cccn23)C1` (stereo not given) the RP-LC retention time was 701 s.

Compound `CCOC(=O)c1ccc2nc(C(F)(F)F)nc(NCc3ccc(Cl)cc3)c2c1` has an RP-LC retention time of 1240 s.

`Cc1cnc(C)n1C1CCN(S(=O)(=O)c2ccccc2)CC1` gave an RP-LC retention time of 634 s.

Work on `O=C(Nc1cccc(-c2ccc(N3CCCCC3)nn2)c1)Nc1ccccc1F` yielded an RP-LC retention time of 742 s.

Compound `CC(=O)c1ccc(NC(=O)C(C)Oc2ccc(=O)n(-c3ccc(F)cc3)n2)cc1` (stereo not given) has an RP-LC retention time of 727 s.

Compound `CC(C)(C)c1csc(-c2csc(S(=O)(=O)NCc3ccc(F)cc3)c2)n1` has an RP-LC retention time of 1220 s.

`CN(C)S(=O)(=O)c1ccc(Oc2ccc(S(=O)(=O)N(C)C)cc2)cc1` gave an RP-LC retention time of 824 s.

Compound `COc1cc(-c2nnc(-c3cccc(S(=O)(=O)N4CCC(C)CC4)c3)o2)cc(OC)c1OC` has an RP-LC retention time of 755 s.

Work on `CC(C)CC(=O)N1CCc2cc(CNS(=O)(=O)c3ccc4c(c3)CC(=O)N4C)ccc21` yielded an RP-LC retention time of 793 s.

In the case of `CCn1cnnc1C1CCCCN1C(=O)Cc1c[nH]c2ccccc12` (stereo not given), the RP-LC retention time is reported as 649 s.

Work on `Cc1ccccc1-c1nc(N)n(C(=O)C2CC2)n1` yielded an RP-LC retention time of 876 s.

`CCOCCCNC(=O)CN1C(=O)CCCc2ccccc21` gave an RP-LC retention time of 681 s.

In the case of `CCOc1ccccc1NC(=O)C(CC)n1cnc2nc3c(cc2c1=O)CCCC3` (stereo not given), the RP-LC retention time is reported as 919 s.

Work on `COc1ccc(CNC(=O)CN2CCc3[nH]c4c(OC)ccc(Cl)c4c(=O)c3C2)cc1` yielded an RP-LC retention time of 610 s.

Work on `O=C(CSc1ccncc1)NCc1cc(-c2ccco2)on1` yielded an RP-LC retention time of 552 s.

With `COCCNC(=O)c1nn(-c2ccc(Cl)cc2)c2c(=O)n(C)cnc12` the RP-LC retention time was 709 s.

In the case of `CCc1ccc(-n2ncc3c(=O)n(Cc4nc(-c5ccc(OC)c(OC)c5)no4)cnc32)cc1`, the RP-LC retention time is reported as 1060 s.

`CCCNC(=O)C1CCN(c2cnc(N3CCN(CC)CC3)nc2)CC1` showed an RP-LC retention time of 565 s.

In the case of `Cc1cc(C(=O)NCC(C)C)n[nH]1`, the RP-LC retention time is reported as 629 s.

Compound `CCn1cnnc1C1CCCCN1S(=O)(=O)c1cccs1` (stereo not given) has an RP-LC retention time of 694 s.

Work on `Cc1cccc(NC(=O)/C=C/c2ccc([N+](=O)[O-])cc2)c1` yielded an RP-LC retention time of 878 s.

Work on `COc1ccc(NC(=O)C2CCCN(S(=O)(=O)c3c[nH]c(C(=O)N4CCCC4)c3)C2)cc1` (stereo not given) yielded an RP-LC retention time of 732 s.

Compound `CCOC(=O)c1ccccc1NC(=O)Cn1cccc(-c2nc(-c3ccccc3)no2)c1=O` has an RP-LC retention time of 1030 s.

Compound `Cc1ccc(S(=O)(=O)[C@H]2CS(=O)(=O)C[C@@H]2N2CCN(Cc3ccccc3)CC2)cc1` has an RP-LC retention time of 651 s.

`CC(C)CC(=O)Nc1ccc(-n2cnc(C(=O)NC3CC3)c2)nc1` showed an RP-LC retention time of 668 s.

With `CCCN1C(=O)COc2ccc(-c3csc(NC(=O)CCc4ccccc4)n3)cc21` the RP-LC retention time was 1070 s.

Compound `Cc1nnc2ccc(S(=O)(=O)N(Cc3ccccc3)c3ccc(F)cc3)cn12` has an RP-LC retention time of 870 s.

Work on `Cc1ccccc1CCNC(=O)c1cc2n(n1)CC(C)(C(=O)NCc1ccc(F)cc1)N(C)C2=O` (stereo not given) yielded an RP-LC retention time of 821 s.

Compound `CSc1ccccc1CN1CCC(CNC(=O)c2ccccc2Br)CC1` has an RP-LC retention time of 572 s.

`COCc1cn(C2CN(C(=O)C3(c4ccccc4)CC3)C2)nn1` showed an RP-LC retention time of 688 s.

For `O=C(COc1cccc2c1CCN(Cc1ccccc1F)C2=O)NCc1ccco1`, the RP-LC retention time was 790 s.

For `O=C(NC1CCN(Cc2ccccc2)CC1)C1CCCN(S(=O)(=O)N2CCOCC2)C1` (stereo not given), the RP-LC retention time was 593 s.

`CCCn1cc(C(=O)NCCCOC)c(S(=O)(=O)N2CCN(c3ccc(Cl)cc3)CC2)n1` gave an RP-LC retention time of 1000 s.

`CC(C)OC(=O)Cn1c(C2CC(=O)N(Cc3ccccc3)C2)nc2ccccc21` (stereo not given) gave an RP-LC retention time of 799 s.

Compound `CCn1nnc2cc(-c3noc(-c4cc(OC)c(OC)c(OC)c4)n3)ccc21` has an RP-LC retention time of 993 s.

For `Cc1ccc2cc(CN3CCC4(CC3)CC(O)CCO4)c(=O)[nH]c2c1` (stereo not given), the RP-LC retention time was 562 s.

With `COc1ccc(CC(=O)NCc2c(C)nc3sc(C)nn23)c(Cl)c1` the RP-LC retention time was 622 s.

With `CCc1ccc(C2=Nc3ccccc3N(CC(N)=O)C(=O)C2)cc1` the RP-LC retention time was 788 s.

In the case of `Cn1cc(CCN2CCC(C(=O)NCc3cccc(Cl)c3)CC2)c2cccnc21`, the RP-LC retention time is reported as 630 s.

`COc1ccc(C(C)NC(=O)C2CCN(c3cncnc3N3CCOCC3)CC2)cc1` (stereo not given) gave an RP-LC retention time of 601 s.

For `O=C(Nc1nnc(-c2ccc3c(c2)CCCC3)o1)c1ccc([N+](=O)[O-])o1`, the RP-LC retention time was 918 s.

Compound `COCCN1C(=O)c2cccn2CC1CNC(=O)c1ccc(Cc2c(C)noc2C)o1` (stereo not given) has an RP-LC retention time of 679 s.

With `CC(C)CCC(=O)NCCc1nc2cccnc2n1-c1ccccc1` the RP-LC retention time was 717 s.

Work on `CCn1cc(-c2ccc(C)cc2)cc1C(=O)O` yielded an RP-LC retention time of 898 s.

In the case of `Cc1cc(C)c(NC(=O)Cn2c(=O)n(-c3ccc(F)cc3)c(=O)c3c2cc(C)n3C)c(C)c1`, the RP-LC retention time is reported as 921 s.

In the case of `Cn1cc(-c2cc3n(n2)CCCN3C(=O)CCC(=O)N2CCCCC2)c2ccccc21`, the RP-LC retention time is reported as 753 s.

With `O=C(NC1CCc2ccccc21)C1CCN(Cc2noc(-c3ccc(F)cc3)n2)CC1` (stereo not given) the RP-LC retention time was 683 s.

Work on `CCN(CC)C(=O)c1sc(-c2cn(C(C)C)c3ncccc23)nc1C` yielded an RP-LC retention time of 902 s.

For `CCOc1ccccc1CNS(=O)(=O)c1ccc(-c2c(C)noc2C)cc1`, the RP-LC retention time was 995 s.

For `Cc1cc2c(=O)n(CC(=O)NCc3ccc(F)cc3)c3cccnc3n2n1`, the RP-LC retention time was 693 s.

`CCn1cnc2ccc(-c3noc(-c4ccc(OC)c(OC)c4)n3)cc21` showed an RP-LC retention time of 698 s.

Work on `CC1CCC(NC(=O)C2CCCN(C(=O)c3cc(-c4ccncc4)n[nH]3)C2)CC1` (stereo not given) yielded an RP-LC retention time of 632 s.

`CC(=O)c1cccc(NC(=O)Cn2c(=O)n(-c3ccc(F)cc3)c(=O)c3c2cc(C)n3C)c1` showed an RP-LC retention time of 910 s.

`CCCn1c(CCNC(=O)c2ccc(F)cc2)nc2cccnc21` gave an RP-LC retention time of 651 s.

`O=C(Nc1ccc(F)cc1F)c1ccc2ncsc2c1` gave an RP-LC retention time of 713 s.

`Brc1ccc(-c2noc(Cc3nnc(-c4ccccc4)o3)n2)cc1` gave an RP-LC retention time of 1110 s.

Work on `Cc1cc(C)c2c(N3CCSCC3)nc(C(=O)NCc3ccccn3)nc2n1` yielded an RP-LC retention time of 567 s.

Compound `Cc1ccc(-c2csc(Cc3nc(-c4ccccc4)no3)n2)cc1` has an RP-LC retention time of 1250 s.

Compound `COc1ccc(-c2noc(Cc3nc(-c4ccc(C)c(C)c4)cs3)n2)cc1` has an RP-LC retention time of 1310 s.

`COc1ncc(C(=O)NC(C)CCc2ccccc2)cn1` (stereo not given) gave an RP-LC retention time of 797 s.

In the case of `O=C(NCCn1ncccc1=O)c1ccc(N2CCCC2)nn1`, the RP-LC retention time is reported as 522 s.

Work on `NC(=O)COC1CCC12CCN(C(=O)C1CCCCC1)CC2` (stereo not given) yielded an RP-LC retention time of 715 s.

Work on `Cn1nc(C(=O)Nc2ccc(F)cc2)c2c1-c1cc(Cl)ccc1SC2` yielded an RP-LC retention time of 1280 s.

`Cc1ccc(C(=O)N2CCc3sc(C(=O)N4CCN(C(C)C)CC4)cc3C2)cc1` showed an RP-LC retention time of 625 s.

`Cc1sc(C)c(S(=O)(=O)NCc2cccs2)c1-c1cc(C(F)(F)F)on1` showed an RP-LC retention time of 1100 s.

For `Cn1cc(CN2CCC(C(=O)NCCCN3CCc4ccccc4C3)CC2)c2cc(Cl)ccc21`, the RP-LC retention time was 878 s.

Work on `CCCCC(C(=O)O)C(C)CC(=O)Nc1nc(-c2ccccc2)cs1` (stereo not given) yielded an RP-LC retention time of 982 s.

For `Cc1ccc(-c2csc(-c3cccn3CC(=O)N3CCCC3)n2)cc1`, the RP-LC retention time was 1070 s.

`COC(=O)c1ccc(C2Nc3ccc(OC)cc3[C@H]3OCCC[C@@H]23)cc1` (stereo not given in full) showed an RP-LC retention time of 1020 s.

In the case of `Cc1ccc(CNC(=O)C2CCN(c3cncnc3N3CCOCC3)CC2)cc1C`, the RP-LC retention time is reported as 649 s.

With `Cc1nc(-c2ccccc2OC2CN(S(=O)(=O)c3c(C)noc3C)C2)no1` the RP-LC retention time was 904 s.

Work on `CCOC(=O)N1CCN(C(=O)Cn2cnc(-c3ccc(OC)cc3)cc2=O)CC1` yielded an RP-LC retention time of 652 s.

With `O=C1CC(c2ccccc2)Oc2ccccc21` (stereo not given) the RP-LC retention time was 932 s.

`N#Cc1ccc(C(=O)NC2CCN(c3ccc(F)cc3)C2=O)cc1` (stereo not given) showed an RP-LC retention time of 754 s.

For `O=C(CN1CCN(Cc2cccc(Cl)c2)C1=O)NCCc1cccs1`, the RP-LC retention time was 823 s.

`COc1cc(CN2CCCC2c2cc(C(C)C)no2)ccc1OCC(N)=O` (stereo not given) showed an RP-LC retention time of 584 s.

Compound `CC(C)c1ccc(N2C(=O)CN(Cc3ccccc3)C3CS(=O)(=O)CC32)cc1` (stereo not given) has an RP-LC retention time of 854 s.

For `CC(C)(C)c1cc(N2CCN(c3ccccn3)CC2)n2ncc(-c3ccccc3)c2n1`, the RP-LC retention time was 1040 s.

In the case of `CC(C)CNC(=O)C1CCN(C(=O)c2ncn3c2COC(c2ccc(F)cc2)C3)CC1` (stereo not given), the RP-LC retention time is reported as 711 s.

`CCN(Cc1cn(CC)nc1C)C(=O)CC1=C2CCCCC2N(C)C1=O` (stereo not given) gave an RP-LC retention time of 648 s.

In the case of `COc1ccc(C)cc1S(=O)(=O)Nc1ccc(-c2cn3ccc(C)nc3n2)cc1`, the RP-LC retention time is reported as 661 s.

With `COc1cccc(CNC(=O)C2(C)CCCN(C(=O)Nc3ccccc3Br)C2)c1` (stereo not given) the RP-LC retention time was 942 s.

Compound `CCc1noc(-c2ccc(-n3cnc(C(=O)NC(C)c4ccccc4)c3)nc2)n1` (stereo not given) has an RP-LC retention time of 919 s.

`COc1cc(NC(=O)Nc2nc(-c3nc4ccccc4s3)cs2)cc(OC)c1OC` showed an RP-LC retention time of 863 s.

Work on `COc1cccc(C(=O)Nc2c3c(nn2C(C)(C)C)CS(=O)(=O)C3)c1` yielded an RP-LC retention time of 752 s.
